Source: patent US10526276B2, “Dream neuronal calcium sensor-modulating compounds, and therapeutic uses thereof” (CONSEJO SUPERIOR DE INVESTIGACIONES CIENTÍFICAS, priority 2014, dated 2020)

Experiments:
Kv4.3+DREAM channels = target: T1, Kv4.3+DREAM channels (Homo sapiens, UniProt Q9UK17+Q9Y2W7); assay: Patch-clamp in CHO cells transiently transfected with Kv4.3 in the presence of DREAM; assay type: cell-based; settings: 100 nM; for inhibitory effect of the Kv4.3+DREAM current (% decrease of the amount of charge passing through the membrane): CHO cells, FIG. 1B
T1 construct: expressed in transfected cells; host or cells: CHO cells, transient transfection
T1 sequence (Q9Y2W7 1-256): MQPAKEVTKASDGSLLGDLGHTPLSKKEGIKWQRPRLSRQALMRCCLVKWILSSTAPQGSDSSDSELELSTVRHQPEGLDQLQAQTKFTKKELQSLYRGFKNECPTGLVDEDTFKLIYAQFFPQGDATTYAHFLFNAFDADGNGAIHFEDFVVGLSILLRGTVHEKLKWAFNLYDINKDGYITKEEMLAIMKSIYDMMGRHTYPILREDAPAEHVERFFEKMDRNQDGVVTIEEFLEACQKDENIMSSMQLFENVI
T1 sequence (Q9UK17 1-655): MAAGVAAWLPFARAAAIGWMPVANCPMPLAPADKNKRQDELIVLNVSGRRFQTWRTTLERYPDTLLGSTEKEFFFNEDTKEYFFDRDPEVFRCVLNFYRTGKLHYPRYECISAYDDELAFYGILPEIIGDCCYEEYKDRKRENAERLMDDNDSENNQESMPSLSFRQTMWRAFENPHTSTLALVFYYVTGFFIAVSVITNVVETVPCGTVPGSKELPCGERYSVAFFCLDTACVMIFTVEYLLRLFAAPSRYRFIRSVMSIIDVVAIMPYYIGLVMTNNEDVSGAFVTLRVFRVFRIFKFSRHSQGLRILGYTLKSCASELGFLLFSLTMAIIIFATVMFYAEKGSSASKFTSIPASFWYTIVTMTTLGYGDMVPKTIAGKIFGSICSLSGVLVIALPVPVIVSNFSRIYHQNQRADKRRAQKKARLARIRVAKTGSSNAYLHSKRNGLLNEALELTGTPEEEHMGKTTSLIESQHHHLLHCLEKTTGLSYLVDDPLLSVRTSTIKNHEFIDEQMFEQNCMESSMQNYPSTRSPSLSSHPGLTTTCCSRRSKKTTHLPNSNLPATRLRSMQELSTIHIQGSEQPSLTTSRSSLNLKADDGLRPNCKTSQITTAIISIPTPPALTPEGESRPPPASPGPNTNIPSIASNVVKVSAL
Excerpt: (§1) The new compounds synthesised according to this invention have been evaluated in vitro in voltage-binding assays in CHO cells transiently transfected with cDNA encoding Kv4.3 only or Kv4.3 in the presence of DREAM (Kv4.3+DREAM) using the patch-clamp technique. […] For some of the compounds evaluated, this effect is selective and is only observed in the presence of the DREAM channel modulator.

Kv4.3 channels = target: T2, Kv4.3 channels (Homo sapiens, UniProt Q9UK17); assay: Patch-clamp in CHO cells transiently transfected with Kv4.3 only; assay type: cell-based; settings: 100 nM, FIG. 1B
T2 construct: expressed in transfected cells; host or cells: CHO cells, transient transfection
T2 sequence (Q9UK17 1-655): T1 sequence (Q9UK17 1-655)
Excerpt: as §1

[1] = test system: STHdh^Q111/Q111 cells infected with lentivirus expressing the complete human DREAM protein (Q111DR); assay: Neuroprotection against H2O2-mediated necrosis (LDH release) in Q111DR cells; assay type: cell-based, mouse; settings: compound 100 nM; H2O2 0.66 mM; FIG. 2
Procedure: FIG. 2. […] RP: Repaniglida.
(§2) In an immortalized cell line of mouse striatum infected with lentivirus STHdh^Q111/Q111 expressing the complete human DREAM protein (Q111DR), the neuroprotective effect of the compounds was tested against necrosis mediated by H2O2 and apoptosis mediated by staurosporine.

[2] = test system: STHdh^Q111/Q111 cells infected with lentivirus expressing the complete human DREAM protein (Q111DR); assay: Neuroprotection against staurosporine-mediated apoptosis (caspase-3 activation) in Q111DR cells; assay type: cell-based, mouse; settings: compound 100 nM, 1 h pre-incubation; staurosporine 1 μM for 5 h; compared with repaglinide (RP); FIG. 3
Procedure: FIG. 3. Analysis of the neuroprotective effect of compounds 9, 16, 22, 23 and 62 (100 nM) against the activation of caspase-3 mediated by staurosporine in ^Q111/Q111 cells infected with lentivirus expressing the complete human DREAM protein. The caspase-3 activity was measured after 1 h of pre-incubation of the compounds (100 nM) and subsequent exposure for 5 h of staurosporine at 1 μM. RP: Repaniglida.
as §2

SMILES	inhibitory effect of the Kv4.3+DREAM current (% decrease of the amount of charge passing through the membrane) (Kv4.3+DREAM channels)	inhibitory effect of the Kv4.3 current in the absence of DREAM (% decrease of the amount of charge passing through the membrane) (Kv4.3 channels)	selectivity of Kv4.3 current inhibition for the presence of DREAM (Kv4.3+DREAM channels; Kv4.3+DREAM versus Kv4.3 only)	release of LDH (lactate dehydrogenase) mediated by H2O2, neuroprotective effect [1]	activation of caspase-3 mediated by staurosporine, neuroprotective effect [2]
CCCCc1ccc(-c2ccc(C(=O)O)c(NC(=O)Cc3ccc(Cl)c(Cl)c3)c2)cc1 [Compound 35, 2-[2-(3,4-dichlorophenyl)acetylamino]-4-(4′-n-butylphenyl)benzoic acid]	only inhibit the Kv4.3 current in the presence of DREAM	only inhibit the Kv4.3 current in the presence of DREAM			
O=C(Cc1ccc(Cl)c(Cl)c1)Nc1ccc(-c2ccccc2)cc1C(=O)O [Compound 42, 2-[2-(3,4-dichlorophenyl)acetylamino]-5-phenylbenzoic acid]	only inhibit the Kv4.3 current in the presence of DREAM	only inhibit the Kv4.3 current in the presence of DREAM			
COC(=O)[C@@H](Cc1cn(C(c2ccccc2)(c2ccccc2)c2ccccc2)cn1)NC(=O)Cc1ccc(Cl)c(Cl)c1 [Compound 62, (2R)-2-[2-(3,4-dichlorophenyl)acetylamino]-3-(1-trityl-1H-imidazol-4-yl)methyl propanoate]	similarly inhibits the current generated by the Kv4.3 channels to that of the Kv4.3 channels in the presence of DREAM	similarly inhibits the current generated by the Kv4.3 channels	has no selectivity	lowest LDH release	lowest activation of caspase-3
